# Reference: patent publication US20220249394A1 (priority 2019, published 2022)
# Target: protease K-resistance prion protein (PrP^Sc) in ScN2a cells (Mus musculus, UniProt P04925)
# Format: cell-based
# Conditions: 6 mM HFIP for 24 hours, protease K 10 μg/ml 37° C. 30 minutes, Western blotting, FIG. 2 #5 to #8
compound,measurement,value
"OC(C(F)(F)F)C(F)(F)F [HFIP, 1,1,1,3,3,3-hexafluoro-2-propanol]",resistance of prion protein to protease K,resistance to protease K was reduced
